This note sets out measurements from US11578083B2, “Pyrimidinium compounds and their mixtures for combating animal pests” (BASF SE, priority 2017, dated 2023).

What all share (assay type): in vivo
Experiment [1] has as its system brown planthopper (Nilaparvata lugens). The experiment can be described thus: Test 6 brown planthopper, foliar spray (mixtures). The following applies: Table 6.2, after 7 days, solo application Spinetoram, use rate 70 ppm. Here is the method:
For evaluating control of brown planthopper (Nilaparvata lugens) by foliar spray method. Clean potted rice seedlings with upper leaf portion cut are properly labeled. Placed three potted rice plants per treatment concentration/combination on top of the rotating disc (270 mm) and sprayed with the 12 mL spray solution. Treated plants are allowed to air-dry in the laboratory for about an hour. After air-drying, covered each treated rice plant. Each treated plant was infested with brown planthoppers using a suction vacuum. Plants are maintained at 27° C.±1° C., 50±5% RH and 24 hours light conditions in a holding room. Percent mortality is recorded 7 days after infestation by counting both the dead and alive brown planthoppers on the plants and on the water.

The test system of experiment [2] is boll weevil (Anthonomus grandis). The experiment can be described thus: Test 3 boll weevil, insect diet with eggs (mixtures). As to conditions: Table 3.2, solo application Spinetoram, use rate 4 ppm. The protocol:
For evaluating control of boll weevil (Anthonomus grandis) the test unit consisted of 24-well-microtiter plates containing an insect diet and 20-30 A. grandis eggs.
The compounds or mixtures were formulated using a solution containing 75% water and 25% DMSO. Concentrations of formulated compounds or mixtures were sprayed onto the insect diet at 20 μl, using a custom built micro atomizer, at two replications.
(§1) For experimental mixtures in these tests identical volumes of both mixing partners at the desired concentrations respectively, were mixed together.
After application, microtiter plates were incubated at 23±1° C., 50±5% RH for 5 days. Egg and larval mortality was then visually assessed.

Experiment [3] deals with vetch aphid (Megoura viciae). The experiment can be described thus: Test 1 vetch aphid, leaf disks (mixtures). The following applies: Table 1, solo application Spinetoram, use rate 2 ppm. The source says:
Synergism can be described as an interaction where the combined effect of two or more compounds is greater than the sum of the individual effects of each of the compounds. The presence of a synergistic effect in terms of percent control, between two mixing partners (X and Y) can be calculated using the Colby equation (Colby, S. R., 1967, Calculating Synergistic and Antagonistic Responses in Herbicide Combinations, Weeds, 15, 20-22):
When the observed combined control effect is greater than the expected combined control effect (E), then the combined effect is synergistic.
The analysis of synergism or antagonism between the mixtures or compositions was determined using Colby's equation.
For evaluating control of vetch aphid (Megoura viciae) through contact or systemic means the test unit consisted of 24-well-microtiter plates containing broad bean leaf disks.
The compounds or mixtures were formulated using a solution containing 75% water and 25% DMSO. Concentrations of formulated compounds or mixtures were sprayed onto the leaf disks at 2.5 μl, using a custom built micro atomizer, at two replications. […]
After application, the leaf disks were air-dried and 5-8 adult aphids placed on the leaf disks inside the microtiter plate wells. […] Aphid mortality and fecundity was then visually assessed.

For experiment [4], the system named is Greenhouse Whitefly (Trialeurodes vaporariorum). The experiment can be described thus: Greenhouse Whitefly, egg plant leaf disk (table 5, mixtures). As to conditions: solo application Oxazosulfyl, use rate 50 ppm. The protocol:
For evaluating control of Greenhouse Whitefly (Trialeurodes vaporariorum) the test unit consisted of 96-well-microtiter plates containing a leaf disk of egg plant leaf disk with white fly eggs. The compounds or mixtures were formulated using a solution containing 75% water and 25% DMSO. Concentrations of formulated compounds or mixtures were sprayed onto the […] at 2.5 μl, using a custom built micro atomizer, at two replications.
as §1
After application, microtiter plates were incubated at 23±1° C., 65±5% RH for 6 days. Mortality of hatched crawlers was then visually assessed.

Experiment [5] relates to Chilo suppressalis. The experiment can be described thus: B.3a Rice stem borer vial bioassay. The following applies: 72 h. Here is the method: Field-collected rice straws were washed with tap water and cut for a certain of length. Straws were air dried before placing individually in vials (=replicate, 3×). About 125 μl test solution was sprayed per vial. Treated rice straws in vials were air dried under the laboratory hood. After air-drying, each straw was inoculated with 10 newly-emerged (0-day old) stem borer larvae. Vials were then covered. Set-up was kept in a holding room maintained at 27° C. and 65% RH for three days. At 3 days after inoculation, rice straws were manually dissected for larval mortality assessment. The data (Table C) show activity against two species of rice stem borers.

Experiment [6] relates to Rice green leafhopper (Nephotettix virescens). The experiment can be described thus: B.1 Rice green leafhopper, sprayed rice seedlings. As to conditions: 72 h. The protocol: B.1 Rice Green Leafhopper (Nephotettix virescens):
Rice seedlings are cleaned and washed 24 hours before spraying. The active compounds are formulated in 50:50 acetone:water (vol:vol), and 0.1% vol/vol surfactant (EL 620) is added. Potted rice seedlings are sprayed with 5 ml test solution, air dried, placed in cages and inoculated with 10 adults. Treated rice plants are kept at about 28-29° C. and relative humidity of about 50-60%. Percent mortality is recorded after 72 hours.

Experiment [7] has as its system Thrips (Dichromothrips corbetti). The experiment can be described thus: B.4 Thrips floral-immersion test. As to conditions: 72 h. Here is the method: B.4 Thrips (Dichromothrips Corbetti):
Dichromothrips corbetti adults used for bioassay are obtained from a colony maintained continuously under laboratory conditions. For testing purposes, the test compound is diluted in a 1:1 mixture of acetone:water (vol:vol), plus 0.01% vol/vol Alkamuls® EL 620 surfactant.
Thrips potency of each compound is evaluated by using a floral-immersion technique. Plastic petri dishes are used as test arenas. All petals of individual, intact orchid flowers are dipped into treatment solution and allowed to dry. Treated flowers are placed into individual petri dishes along with about 20 adult thrips. The petri dishes v then covered with lids. All test arenas are held under continuous light and a temperature of about 28° C. for duration of the assay. After 3 days, the numbers of live thrips are counted on each flower, and along inner walls of each petri dish. The percent mortality is recorded 72 hours after treatment.

Experiment [8] relates to Chilo suppressalis. The experiment can be described thus: B.3b Rice striped stem borer, foliar spraying. The protocol:
All three pots (=replicates) of four to five-week old potted rice per treatment were simultaneously sprayed with 12 mL test solution. After spray application, plants were air dried in the laboratory before inoculation. After air-drying, 5 to 6-day old egg masses of CHILSU were used for inoculation. All stem borer-infested potted rice plants were transferred inside the screenhouse 1 day after inoculation until the final assessment. […] Whole plant damage was assessed before cutting each hill at the basal portion for tiller dissection. Each dissected tiller was inspected looking for dead (if possible) and alive stemborer larvae.

The test system of experiment [9] is Chilo suppressalis. The experiment can be described thus: B.3c Rice striped stem borer, drench application. As to conditions: Chilo suppressalis neonates, Dose 10 mg, 14 DAT. The source says: The test solution was poured onto the soil of each potted rice plant (=replicate) with five tillers each pot. After drench application, treated plants were transferred inside the screenhouse for three days prior to stemborer inoculation inside the laboratory. Three days after drench application, 5 to 6-day old egg masses of CHILSU were used for inoculation. All stemborer-infested potted rice plants were transferred inside the screenhouse 1 day after inoculation until the final assessment. […] Whole plant damage was assessed before cutting each hill at the basal portion for tiller dissection. Each dissected tiller was inspected looking for dead (if possible) and alive stemborer larvae.

For experiment [10], the system named is Rice brown plant hopper (Nilaparvata lugens). The experiment can be described thus: B.2 Rice brown plant hopper, sprayed rice seedlings. The following applies: 72 h. The protocol: B.2 Rice Brown Plant Hopper (Nilaparvata lugens):
Rice seedlings are cleaned and washed 24 hours before spraying. The active compounds are formulated in 50:50 acetone:water (vol:vol) and 0.1% vol/vol surfactant (EL 620) is added. Potted rice seedlings are sprayed with 5 ml test solution, air dried, placed in cages and inoculated with 10 adults. Treated rice plants are kept at about 28-29° C. and relative humidity of about 50-60%. Percent mortality is recorded after 72 hours.

Experiment [11] concerns Cowpea aphid (Aphis craccivora). The experiment can be described thus: B.3 Cowpea aphid leaf disk test. The following applies: foliar, 120 h. The protocol: If not otherwise specified, the test solutions are prepared as follows:
The active compound is dissolved at the desired concentration in a mixture of 1:1 (vol:vol) distilled water: acetone. The test solution is prepared at the day of use.
B.3 Cowpea aphid (Aphis craccivora):
For evaluating control of Cowpea aphid through contact or systemic means the test unit consists of 24-well-microtiter plates containing broad bean leaf disks.
The compounds are formulated using a solution containing 75% v/v water and 25% v/v DMSO. Different concentrations of formulated compounds are sprayed onto the leaf disks at 2.5 μl, using a custom built micro atomizer, at two replications.
After application, the leaf disks are air-dried and 5-8 adult aphids placed on the leaf disks inside the microtiter plate wells. The aphids are then allowed to suck on the treated leaf disks and incubated at about 23±1° C. and about 50±5% relative humidity for 5 days. Aphid mortality and fecundity is then visually assessed.

The test system of experiment [12] is yellow fever mosquito (Aedes aegypti). The following applies: in vivo. The protocol: For evaluating control of yellow fever mosquito (Aedes aegypti) the test unit consisted of 96-well-microtiter plates containing 200 μl of tap water per well and 5-15 freshly hatched A. aegypti larvae.
The compounds or mixtures were formulated using a solution containing 75% water and 25% DMSO. Different concentrations of formulated compounds or mixtures were sprayed onto the insect diet at 2.5 μl, using a custom built micro atomizer, at two replications.
as §1
After application, microtiter plates were incubated at 28±1° C., 80±5% RH for 2 days. Larval mortality was then visually assessed.

Turning to spinetoram [reference compound], the Average control % in [1] is recorded as 62%; in [2], 0%; in experiment [3] it was 50%.

`CCS(=O)(=O)c1cccnc1-c1nc2cc(S(=O)(=O)C(F)(F)F)ccc2o1` [Oxazosulfyl, 2-(3-ethylsulfonyl-2-pyridyl)-5-(trifluoromethylsulfonyl)-1,3-benzoxazole, reference compound]: the Average control % in experiment [4] was 50%.

Take `C[n+]1c2n(c([O-])c(-c3ccccc3)c1=O)C(c1cnc(Cl)s1)CS2` (racemic) [Compound I-1, 3-(2-chlorothiazol-5-yl)-8-methyl-7-oxo-6-phenyl-2,3-dihydrothiazolo[3,2-a]pyrimidin-8-ium-5-olate]: in the experiment with Chilo suppressalis [5], the mortality (as a rule, the share of the test organisms that died) at 300 ppm was determined as 80%. Further, the mortality at 1 ppm stood at 50% in experiment [6], 54% in [10] and 80% in [11]. Also, the mortality at 10 ppm in experiment [7] was found to be 73%. The “Feeding damage (%)” value is 15% in the experiment on Chilo suppressalis [8] (Chilo suppressalis neonates, foliar spraying, Dose 200 ppm, 14 DAT) and 15% with Chilo suppressalis [9]. Further, the mortality at 200 ppm with Chilo suppressalis [8] (Chilo suppressalis, foliar, 336 h) stood at 96%.

In the case of `Cc1cccc2sc3nncn3c12` [Tricyclazol, tricyclazole, reference compound], in experiment [12], the Average control % is listed as 50%.
